According to patent publication US20240368226A1, “Cyclic Cell Penetrating Peptides For Treating Neisseria Gonorrhoeae Infections” (priority 2023, published 2024):
Where a SMILES comes first, the peptide text is derived from it. Bridges are numbered along the chain shown (N, C = ends). [ ]: non-standard residue; d: D form. Ahx = NCCCCCC(=O)O

Assays:
[1] = test system: sheep red blood cells; format: cell-based
Experimental: In vitro assessment of hemolysis is important in determining the potential cytotoxicity of any material or drug that would be in contact with blood. Various protocols for determining hemolytic potential have been reported. A procedure recommended for analysis of the hemolytic potential of drug substances for RBCs using 0.1% Triton as the positive control and a 1 h incubation period was performed.
The CPPs or the vehicle (DMSO and 0.1% Triton X-100), were diluted in PBS. Washed pooled sheep red blood cells (sRBCs; Rockland, R405-0050, 10% v/v) were diluted to 2.1% in PBS. Then 190 μL of the cell suspension was added to the wells of a 96-well plate (Corning CellBIND). Solutions (10 μL) containing the linear or DE or TE cyclized forms of the CPP at 4,000 or 2,000 μM or the DMSO and PBS vehicle were added to wells with sRBCs in triplicate. As a positive control three wells were treated with 10 μL of 2% Triton X-100. The 96 well plates were incubated at 37° C. and 5% CO2 for 1 h, and then centrifugated at 1,000×g for 5 min. Supernatant (100 μL) was transferred to a new plate and then analyzed on the Epoch microtiter plate reader at 405-nm. Results are expressed as % hemolysis, which was calculated according to the following equation: % hemolysis=[(405 nm absorbance (Abs) of RBCs in the peptide solution-405 nm Abs in PBS)/(405 nm Abs in 0.1% Triton X-100-405 nm ABs in PBS]×100. Values of >25% hemolysis were defined as poor, 10-25% medium, and <10% as non-hemolytic according to recommended guidelines.

[2] = test system: activated THP-1 monocytic cells; assay: LDH release cytotoxicity, THP-1; format: cell-based, human; parameters: cytotoxicity, THP-1: unit of the concentration uncertain; details: for cytotoxicity, THP-1: 100 (unit uncertain)
Experimental: (§1) To determine whether the CPPs were cytotoxic for human cells, the relative amount of LDH released from immortalized End1/E6E7 endocervical cells, ME 180 cervical cells and THP-1 monocytic cells was measured following 18 h treatment (FIG. 9A-C). […] The cytotoxicity of the endogenous AMP LL-37 was analyzed as a comparator.
(§2) We analyzed the levels of lactate dehydrogenase (LDH) released from dying human End1/E6E7 epithelial endocervical cells1, ME-180 epithelial cervical2, and THP-1 monocytes due to cytotoxicity from exposure to the CPP structural analogs or LL-37 using the Cyquant LDH Cytotoxicity Assay Kit (Invitrogen ThermoFisher Scientific). The THP-1 cells were activated overnight by incubation with 10 ng/ml of phorbol myristate acetate (PMA; Sigma-Aldrich). After washing, cells were trypsinized, and then 1.0×10^4 cells in 100-μL media were plated per well in 96-well plates. For the activated THP-1 and ME-180 cells, Opti-MEM (Gibco) with 1% FBS was used. For the End1/E6E7 cells Keratinocyte-Scrum Free Media (ThermoFisher Scientific) with supplements was used. After plating, the activated THP-1 cells were incubated for 4-5 h and the End1/E6E7 and ME-180-cells were incubated overnight. Next stock solutions of the CPPs or LL-37 were diluted in PBS and aliquots were added to wells to create final concentrations of 100 and 200 μM of the CPPs, or 20 and 40 μM of LL-37 in total volumes of 100 μL per well. Negative control wells were treated with vehicle only, which was 1% DMSO in media. Vehicle controls for LL-37 were wells with Opti-MEM with 1% FBS only. After adding the test reagents, plates were gently mixed and incubated at 37° C. and 5% CO2 for 18 h. Positive control wells were treated with 10 μL of the Triton X-100 Lysis Buffer provided with the Cyquant kit according to the directions of the vendor. Then the levels of LDH in supernatants were quantified using a kit (Roche, Mannheim, DE, USA) with detection on an Epoch (Biotek Instruments, Winooski, Vermont, USA) microtiter plate reader at 490 nm with 680 nm subtracted. The results were reported as the percentage of LDH released from cells treated with LL-37 or CPP relative to LDH released from control cells treated with vehicle-only.

[3] = test system: End1/E6E7 endocervical cells; assay: LDH release cytotoxicity, End1/E6E7; format: cell-based, human; parameters: cytotoxicity, End1/E6E7: unit of the concentration uncertain
Experimental: as §1, §2

[4] = test system: ME-180 cervical cells; assay: LDH release cytotoxicity, ME-180; format: cell-based, human; parameters: cytotoxicity, ME-180: unit of the concentration uncertain
Experimental: as §1, §2

[5] = test system: invasion of ME-180 cells by FA1090 1-81-S2 gonococci; assay: Invasion of human cervical epithelial cells by gonococci; format: cell-based; details: LL-37 20 μM; moi of 5; 4 h
Experimental: Because the CPP was bactericidal for N. gonorrhoeae and, furthermore, could penetrate the bacteria, it was postulated that treatment may prevent invasion of human epithelial cells. Therefore, the effect of the CPP on the invasion of a human cervical epithelial cell line, ME-180, was tested using the AMP LL-37 for comparison. FA1090 1-81-S2 gonococci at a moi of 5 were incubated with ME-180 cells in 96-well plates with vehicle only, LL-37 (20 μM), or the CPP (100 μM) for 4 h.

[6] = in vivo; cited from earlier work
[7] = test system: S. aureus strains 8325-4 and Newman; format: cell-based, Staphylococcus aureus
Experimental: The sensitivity of a Gram positive species was also tested.
N. flavescens strain 4322, N. lactamica strain 1934, and N. subflava strain 52, were available from the collections of the late Dr. Herman Schneider of the Walter Reed Army Institute of Research and of the Neisseria Repository that was formerly housed at UC Berkeley. The 8325-4 and Newman are strains of S. aureus. The latter is β-hemolytic.
S. aureus were grown overnight on Difco GC agar containing 1% BBL Isovitalex Enrichment. Using a sterile cotton swab, bacterial colonies were placed in suspension in GC broth containing 1% BBL Isovitalex. Absorbance of the bacterial suspension at 595 nm was determined to enable dilution to approximately 4×10^6 cells/mL in GC broth. Aliquots of the suspension containing 8×10^5 bacteria along with the CPPs, diluted from stock solutions in DMSO, were added in GC broth containing 1% BBL Isovitalex to make a total volume of 200 μL/well. Bacteria in GC broth with Isovitalex and 1% DMSO were added to vehicle-only control wells. […] After incubation in 5% CO2 at 37° C. for 18 h, plates were analyzed at 600-nm on an Epoch microtiter plate reader. The percentage inhibition of each sample was determined relative to the absorbance of the blank (GC broth only) and the vehicle-only controls. […] If no growth was observed on the plate, then that test concentration was determined to be inhibitory.

## N=C(N)NCCC[C@@H]1NC(=O)CCCCCNC(=O)[C@H](CCCNC(=N)N)NC(=O)[C@H](CCCNC(=N)N)NC(=O)CCCCCNC(=O)[C@H](CCCNC(=N)N)NC(=O)[C@H](CCCNC(=N)N)NC(=O)CCCCCNC(=O)[C@H](CCCNC(=N)N)NC(=O)[C@H](CCCNC(=N)N)NC(=O)CCCCCNC(=O)[C@H](CCCNC(=N)N)NC(=O)[C@@H](N)CSSC[C@@H](C(N)=O)NC1=O [DS cyclized CPP, CRXRRXRRXRRXRC—NH2] (H-CR[Ahx]RR[Ahx]RR[Ahx]RR[Ahx]RC-NH2; disulfide 1-14)
[1]
  hemolysis of sheep RBCs: no hemolysis
[2]; 100 µM, 18 h
  cell death (LDH), THP-1: significantly increased
[2]; 100 and 200 mM
  percentage of dead cells compared to the Triton X-100 treated controls, THP-1: less than 20%
[3]; 100 and 200 mM
  percentage of dead cells compared to the Triton X-100 treated controls, End1/E6E7: less than 20%
[4]; 100 and 200 mM
  percentage of dead cells compared to the Triton X-100 treated controls, ME-180: less than 20%

## LL-37 [reference compound]
[2]; 20 or 40 μM LL-37, 18 h, p<0.001
  levels of cell death compared to the vehicle-only control, THP-1: more than doubled
[3]; LL-37 20 µM, 18 h
  LDH levels, End1/E6E7: more than doubled
[3]; LL-37 20 and 40 mM
  cytotoxicity, End1/E6E7: significant cytotoxicity
[4]; LL-37 20 µM, 18 h
  LDH levels, ME-180: more than doubled
[4]; LL-37 20 and 40 mM
  cytotoxicity, ME-180: significant cytotoxicity
[5]
  invasion of ME-180 cells: completely inhibited invasion

## CC(=O)N[C@H](CSSC[C@H](N)C(=O)O)C(=O)N[C@H](C)C(=O)N[C@H](CCCNC(=N)N)C(=O)N[C@H](CCCNC(=N)N)C(=O)N[C@H](CCCNC(=N)N)C(=O)N[C@H](C)C(=O)N[C@H](CCCNC(=N)N)C(N)=O [etelcalcetide]
[6]
  effective half-life: 72 to 96 h

## N=C(N)NCCC[C@@H]1NC(=O)CSC[C@@H](C(N)=O)NC(=O)[C@H](CCCNC(=N)N)NC(=O)CCCCCNC(=O)[C@H](CCCNC(=N)N)NC(=O)[C@H](CCCNC(=N)N)NC(=O)CCCCCNC(=O)[C@H](CCCNC(=N)N)NC(=O)[C@H](CCCNC(=N)N)NC(=O)CCCCCNC(=O)[C@H](CCCNC(=N)N)NC(=O)[C@H](CCCNC(=N)N)NC(=O)CCCCCNC1=O [TE cyclized CPP, c [RXRRXRRXRRXRC(S—)]] ({CH2CO}-R[Ahx]RR[Ahx]RR[Ahx]RR[Ahx]RC-NH2; thioether N-13)
[7]
  MIC for S. aureus: > 100 µM
[1]
  hemolysis of sheep RBCs: no hemolysis
[2]; 200 μM, 18 h
  cytotoxicity compared to DS cyclized CPP, THP-1: less cytotoxic compared to the DS cyclized CPP
  cytotoxicity compared to linear CPP, THP-1: more cytotoxic
[2]
  cytotoxicity, THP-1: virtually no cytotoxicity
[3]; 200 μM, 18 h
  cytotoxicity compared to DS cyclized CPP, End1/E6E7: less cytotoxic compared to the DS cyclized CPP
  cytotoxicity compared to linear CPP, End1/E6E7: less cytotoxic compared to the linear CPP
[3]; 100 (unit uncertain)
  cytotoxicity, End1/E6E7: virtually no cytotoxicity
[4]; 200 μM, 18 h
  cytotoxicity compared to DS cyclized CPP, ME-180: less cytotoxic compared to the DS cyclized CPP
[4]; 100 (unit uncertain)
  cytotoxicity, ME-180: virtually no cytotoxicity

## N=C(N)NCCC[C@H](NC(=O)CCCCCNC(=O)[C@H](CCCNC(=N)N)NC(=O)[C@H](CCCNC(=N)N)NC(=O)CCCCCNC(=O)[C@H](CCCNC(=N)N)NC(=O)[C@H](CCCNC(=N)N)NC(=O)CCCCCNC(=O)[C@H](CCCNC(=N)N)NC(=O)[C@H](CCCNC(=N)N)NC(=O)CCCCCNC(=O)[C@@H](N)CCCNC(=N)N)C(=O)O [linear CPP, RXRRXRRXRRXR, reference compound] (H-R[Ahx]RR[Ahx]RR[Ahx]RR[Ahx]R-OH)
[1]
  hemolysis of sheep RBCs: no hemolysis
[2]
  cytotoxicity, THP-1: virtually no cytotoxicity
[2]; 100 or 200 μM, 18 h
  cell death (LDH released), THP-1: not significantly increased
[3]; 100 (unit uncertain)
  cytotoxicity, End1/E6E7: virtually no cytotoxicity
[4]; 100 (unit uncertain)
  cytotoxicity, ME-180: virtually no cytotoxicity
